These results are taken from patent publication US20260356957A1, “METHODS FOR TREATMENT OF NON-SMALL CELL LUNG CANCER (NSCLC)” (Janssen Biotech, Inc., priority 2023, published 2026).

Data set [1] has as its system EGFR-mutated NSCLC with brain metastasis. Briefly: MARIPOSA Phase 3, intracranial PFS by BICR in participants with history of brain metastasis. The format is in vivo, human. An excerpt:
• 1. […] Intracranial PFS [Time Frame: Up to approximately 42 months]. […] Incidence and Severity of Adverse Events (AEs) [Time Frame: Up to approximately 60 months]. Incidence and severity of treatment emergent adverse events (TEAEs) will be reported. Any adverse event occurring at or after the initial administration of study treatment through the day of last dose plus 30 days, or until the start of subsequent anticancer therapy (if earlier), is considered to be treatment emergent. • 8. Number of Participants with Clinical Laboratory Abnormalities [Time Frame: Up to approximately 60 months]. Number of participants with clinical laboratory abnormalities (serum chemistry, hematology, blood coagulation, and urine samples) will be reported. • 9. Number of Participants with Vital Signs Abnormalities [Time Frame: Up to approximately 60 months]. Number of participants with vital signs abnormalities (temperature, heart rate, respiratory rate, oxygen saturation, blood pressure) will be reported. • 10. Number of Participants with Physical Examination Abnormalities [Time Frame: Up to approximately 60 months]. Number of participants with physical examination abnormalities will be reported. • 11. […] Number of Participants with Anti-Amivantamab Antibodies [Time Frame: Up to approximately 42 months]. […] Change from Baseline in Non-Small Cell Lung Cancer-Symptom Assessment Questionnaire (NCSLC-SAQ) [Time Frame: Baseline Up to approximately 42 months]. The NSCLC-SAQ contains 7 items that assess cough, pain, dyspnea, fatigue, and poor appetite over a 7-day recall period. Each multi-item scale and individual item will be summarized using count and percent by visit. • 15. Change from Baseline in European Organization of Research and Treatment of Cancer Quality of Life Questionnaire Core 30 (EORTC-QLQ-C30) [Time Frame: Baseline Up to approximately 42 months]. EORTC-QLQ-C30 is a core 30-item questionnaire for evaluating the health-related quality of life (HRQOL) of participants participating in cancer clinical studies. • 16.

Data set [2] deals with EGFR-mutated locally advanced or metastatic NSCLC. Briefly: MARIPOSA Phase 3, time to subsequent therapy (TTST) and subsequent therapy. The format is in vivo, human.
For data set [3], the system named is EGFR-mutated NSCLC. The settings on record: all prespecified subgroups; cited from earlier work.
For data set [4], the system named is EGFR-mutated locally advanced or metastatic NSCLC. Briefly: MARIPOSA Phase 3, time to symptomatic progression (TTSP). The format is in vivo, human.
Data set [5] has the same test system. The data set can be described thus: MARIPOSA Phase 3, progression-free survival by BICR. In kind it is in vivo, human. An excerpt:
The primary endpoint of the study is PFS (using RECIST v1.1 guidelines) as assessed by blinded independent central review (BICR).

A short description of data set [6]: MARIPOSA Phase 3, adverse events. The format is in vivo, human. Particulars: in vivo. An excerpt:
• 1. […] Incidence and Severity of Adverse Events (AEs) [Time Frame: Up to approximately 60 months]. Incidence and severity of treatment emergent adverse events (TEAEs) will be reported. Any adverse event occurring at or after the initial administration of study treatment through the day of last dose plus 30 days, or until the start of subsequent anticancer therapy (if earlier), is considered to be treatment emergent. • 8. Number of Participants with Clinical Laboratory Abnormalities [Time Frame: Up to approximately 60 months]. Number of participants with clinical laboratory abnormalities (serum chemistry, hematology, blood coagulation, and urine samples) will be reported. • 9. Number of Participants with Vital Signs Abnormalities [Time Frame: Up to approximately 60 months]. Number of participants with vital signs abnormalities (temperature, heart rate, respiratory rate, oxygen saturation, blood pressure) will be reported. • 10. Number of Participants with Physical Examination Abnormalities [Time Frame: Up to approximately 60 months]. Number of participants with physical examination abnormalities will be reported. • 11. […] The NSCLC-SAQ contains 7 items that assess cough, pain, dyspnea, fatigue, and poor appetite over a 7-day recall period. Each multi-item scale and individual item will be summarized using count and percent by visit. • 15. […] EORTC-QLQ-C30 is a core 30-item questionnaire for evaluating the health-related quality of life (HRQOL) of participants participating in cancer clinical studies. • 16.

For data set [7], the system named is EGFR-mutated locally advanced or metastatic NSCLC. Briefly: MARIPOSA Phase 3, progression-free survival after first subsequent therapy (PFS2). The format is in vivo, human. An excerpt: The efficacy population included all patients who had undergone randomization. Tick marks indicate censoring of data. […]
Data set [8] shares this test system. The data set can be described thus: MARIPOSA Phase 3, duration of response by BICR. Particulars: confirmed responders. In kind it is in vivo, human.
The test system is the same in data set [9]. The data set can be described thus: MARIPOSA Phase 3, objective response by BICR (RECIST v1.1). The format is in vivo, human. Particulars: best overall response.
Data set [10] shares this test system. The data set can be described thus: MARIPOSA Phase 3, overall survival. The format is in vivo, human.

In the case of `C=CC(=O)Nc1cc(Nc2nccc(-n3cc(CN(C)C)c(-c4ccccc4)n3)n2)c(OC)cc1N1CCOCC1` [Lazertinib, N-(5-(4-(4-((dimethylamino)methyl)-3-phenyl-1H-pyrazol-1-yl)pyrimidin-2-ylamino)-4-methoxy-2-morpholinophenyl) acrylamide], the “Event (intracranial PFS)” value in data set [1] was 37 (43.0%) (%). Besides, the “Intracranial PFS time to event, 75th percentile (95% CI)” value in [1] (NE = not estimable) is listed as “NE (22.67, NE)”. In data set [2] (Full Analysis Set), the “TTST 6-month event-free rate (95% CI)” value is 0.90 (0.85, 0.93); the “TTST 12-month event-free rate (95% CI)” value is 0.71 (0.66, 0.78); the “TTST 18-month event-free rate (95% CI)” value is 0.60 (0.53, 0.66); the “TTST 24-month event-free rate (95% CI)” value is on record as 0.50 (0.43, 0.58). In [2] (NE = not estimable), the “TTST time to event, 75th percentile (95% CI)” value was “NE (NE , NE)”. For the same compound, the “PFS vs gefitinib” value in data set [3] was “improved PFS compared to the first generation EGFR TKI gefitinib in all prespecified subgroups”. Also, in data set [4] (Full Analysis Set), the “Death without Symptomatic PD” value is recorded as 24 (11.1%) (%); the “Event (TTSP)” value was 70 (22.4%) (%); the “TTSP 6-month event-free rate (95% CI)” value is 0.90 (0.85, 0.93); the “TTSP 12-month event-free rate (95% CI)” value is recorded as 0.79 (0.72, 0.84). For the same compound, in data set [4] (Full Analysis Set), the “TTSP 18-month event-free rate (95% CI)” value was 0.71 (0.64, 0.76); the “TTSP 24-month event-free rate (95% CI)” value was 0.65 (0.58, 0.72); the “TTSP 30-month event-free rate (95% CI)” value was 0.61 (0.52, 0.69); the “TTSP time to event, 25th percentile (95% CI)” value was 13.80 (10.41, 18.56) months. In [4] (NE = not estimable), the “TTSP Median (95% CI)” value is listed as “NE (NE, NE)” and the “TTSP time to event, 75th percentile (95% CI)” value is recorded as “NE (NE, NE)”. In data set [5], the “PFS 6-month event-free rate (95% CI)” value is recorded as 0.85 (0.79, 0.89); the “PFS 18-month event-free rate (95% CI)” value is recorded as 0.52 (0.44, 0.58); the “PFS 24-month event-free rate (95% CI)” value is listed as 0.35 (0.27, 0.42); the “PFS 30-month event-free rate (95% CI)” value is listed as 0.30 (0.22, 0.39). Moreover, in data set [5] (Full Analysis Set), the “Censored (PFS)” value is reported as 95 (44.0%) (%) and the “PFS time to event, 75th percentile (95% CI)” value is on record as “NE (24.05, NE)”. Besides, in data set [6], the “Safety profile” value is “well defined and tolerable, and largely consistent with that seen with other 3rd generation EGFR TKI”. Moreover, the “Event (PFS2)” value in data set [7] (Full Analysis Set) is given as 58 (26.9%) (%). For the same compound, in data set [7] (NE = not estimable), the “PFS2 time to event, 75th percentile (95% CI)” value was “NE (28.94, NE)”. Moreover, in data set [8], the “Censored (DOR)” value is 77 (48.1%) (%) and the “Event (DOR)” value is 83 (51.9%) (%). Further, in [8] (NE = not estimable), the “DOR time to event, 75th percentile (95% CI)” value is given as “NE (NE, NE)”. Further, in data set [9], the “Complete Response (CR)” value is on record as 9 (4.2%) (%), the “Not Evaluable (NE)” value is recorded as 5 (2.3%) (%) and the “Progressive Disease (PD)” value is on record as 9 (4.2%) (%). Besides, in [10] (Full Analysis Set), the “Censored (OS)” value is reported as 160 (74.1%) (%); the “Event (OS)” value is on record as 56 (25.9%) (%); the “OS 12-month event-free rate (95% CI)” value is 0.86 (0.81, 0.90); the “OS 18-month event-free rate (95% CI)” value was 0.78 (0.71, 0.83). Besides, in data set [10] (Full Analysis Set), the “OS 24-month event-free rate (95% CI)” value was 0.71 (0.61, 0.78) and the “OS 30-month event-free rate (95% CI)” value is 0.68 (0.58, 0.75). The “OS time to event, 75th percentile (95% CI)” value in [10] (NE = not estimable) was “NE (NE, NE)”. The “Median overall survival (95% CI)” value in [10] (interim analysis, NE = not estimable) was “NE (NE, NE)”.
Consider “Amivantamab: IgG1 anti-EGFR/c-Met bispecific antibody described in U.S. Pat. No. 9,593,164; SEQ ID NO: 1-20”, for which the “Safety profile” value in [6] is “well defined and tolerable, largely consistent with its on-target activity against the EGFR and MET pathways”.
